Results on 10 molecules are retold here after PubChem BioAssay (NCI).

Several values for one entry are separate records, joined by “and”; a condition that tells them apart may be missing. Identical values can stand only once.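 1) Cells in 96-well plates. 2) Compound, 48 h, 5 concentrations. 3) Linear interpolation between surrounding doses. 4) Unreached endpoint = highest concentration. Abbreviation: GI50, concentration required for 50% inhibition of growth. TGI: total growth inhibition.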

Holding throughout (test): NCI tumour cell line growth inhibition, 48 h
Experiment [1] deals with PC-3 prostate.
In experiment [2] the test system is UACC-257 melanoma.
The subject of experiment [3] is NCI/ADR-RES ovarian.
Experiment [4] has as its system SW-620 colon.
The subject of experiment [5] is HCC-2998 colon.
Experiment [6] has as its system OVCAR-5 ovarian.
Experiment [7] concerns HT29 colon.
The subject of experiment [8] is U251 CNS.
The test system of experiment [9] is K-562 leukemia.
Experiment [10] has as its system A498 renal.

Consider `COc1ccc(-c2nc(Nc3ccc(F)cc3)nc(Nc3ccc4c(c3)nc(C)n4Cc3ccccc3)n2)cc1`, for which the GI50 is 3.11 µM in [1]; 7.17 µM in experiment [2]; 3.23 µM in experiment [3]; 5.25 µM in experiment [4]; 5.85 µM in experiment [5]; 3.26 µM in experiment [6]. The GI50 in experiment [7] was 1.76 µM; in experiment [8], 4.19 µM; in experiment [9], 3.44 µM; in [10], 2.39 µM. The TGI was above 100 µM in [1]; above 100 µM in experiment [2]; 12.2 µM in experiment [3]; above 100 µM in experiment [4]; above 100 µM in [5]; 68.9 µM in experiment [6]. The TGI was 3.56 µM in experiment [7], above 100 µM in experiment [8], above 100 µM in experiment [9] and 62.4 µM in experiment [10].
For the molecule `CCOC(=O)c1cc2c(OC)cc(OC)cc2oc1=O`, the TGI in experiment [1], in experiment [2], in [3], in experiment [4], in experiment [5] and in experiment [6] was above 100 µM each time. Besides, the TGI in experiment [7], in experiment [8], in experiment [9] and in experiment [10] was above 100 µM in each case.
`COc1ccc2c(c1)OC(N)=C(C#N)C2c1ccc(F)c(F)c1` (centres undefined): the GI50 was 0.569 µM in experiment [1]; 0.408 µM in experiment [2]; 0.351 µM in experiment [3]; 0.398 µM in experiment [4]; 2.5 µM in [5]; 2.84 µM in [6]. For the same molecule, the GI50 in experiment [7] was 0.318 µM; in [8], 0.425 µM; in [9], 0.257 µM; in experiment [10], 0.231 µM. Also, the TGI in [1] is above 100 µM; in experiment [2] it was above 100 µM; in [3] it was 10.7 µM; in experiment [4], above 100 µM; in experiment [5], above 44.9 µM; in [6], above 100 µM. Further, the TGI in [7] was 4.77 µM; in [8], above 45.5 µM; in experiment [9], above 100 µM; in experiment [10] it was 5.96 µM.
With `CN(CCNc1ccc(C(=N)N)cc1)c1ccc(C(=N)N)cc1`, the GI50 is 53 µM in [1]; 35.1 µM in experiment [2]; 63.6 µM in experiment [3]; above 100 µM in [4]; 97.3 µM in experiment [5]; above 100 µM in experiment [6]. Besides, the GI50 was 80.8 µM in experiment [7], 30.6 µM in experiment [8], 27.6 µM in experiment [9] and 4.43 µM in experiment [10]. The TGI in experiment [1], in [2], in experiment [3], in [4], in [5] and in experiment [6] was above 100 µM in each case. Further, the TGI is above 100 µM in [7], above 100 µM in [8], above 100 µM in experiment [9] and 44.7 µM in experiment [10].
As for `N#CC1(C#N)C2C=CC(C3CC=CC32)C1(C#N)C#N` (centres undefined), the TGI was 16.2 µM in experiment [1]; 21 µM in experiment [2]; 33.4 µM in experiment [3]; 5.03 µM and 22.6 µM in experiment [4]; above 50 µM in [5]; 16.8 µM in experiment [6]. Also, the TGI in experiment [7] is 21.9 µM; in [8], 17.6 µM; in experiment [9] it was 5.83 µM and 3.38 µM; in experiment [10] it was 16.9 µM. In addition, the GI50 in [4] is 2.64 µM; in [9], 1.01 µM.
`CN1CCN(C(=O)OCc2nc3c(N4CCOCC4)nc(-c4ccccc4)nc3n2C)CC1`: the GI50 was 1.09 µM in [1]; 1.47 µM in experiment [2]; 1.82 µM in experiment [3]; 0.329 µM in [4]; 1.58 µM in experiment [5]; 1.46 µM in experiment [6]. In addition, the GI50 in experiment [7] was 0.512 µM; in experiment [8], 1.52 µM; in experiment [9], 0.512 µM; in [10], 1.53 µM. In addition, the TGI in experiment [1] came to 2.49 µM; in experiment [2], 3.17 µM; in [3], 6.03 µM; in experiment [4] it was 1.19 µM; in [5], 3.21 µM; in [6], 3 µM. Further, the TGI in experiment [7] amounted to 2.24 µM; in [8], 3.17 µM; in [9] it was 7.41 µM; in experiment [10] it was 2.91 µM.
Take `CC(C)c1ccc2c(c1)CCC1C(C)(CN)CCCC21C` (centres undefined): the TGI was found to be 3.12 µM in experiment [1]; 3.03 µM in experiment [2]; 3.61 µM in [3]; 2.9 µM in experiment [4]; 0.485 µM in experiment [5]; 3.33 µM in experiment [6]. Besides, the TGI amounted to 2.39 µM in [7], 2.83 µM in experiment [8], 3.01 µM in experiment [9] and 2.78 µM in experiment [10].
In the case of `NS(=O)(=O)c1ccc(N=Nc2c(O)[nH]c3cccc(CCc4ccncc4)c23)cc1`, the GI50 in experiment [1], in experiment [2], in experiment [3], in experiment [4], in [5] and in [6] was above 25 µM throughout. The GI50 in [7], in experiment [8], in experiment [9] and in experiment [10] was above 25 µM throughout. The TGI in [1], in [2], in [3], in experiment [4], in experiment [5] and in experiment [6] was above 25 µM throughout. Besides, the TGI in experiment [7], in [8], in experiment [9] and in experiment [10] was above 25 µM in each case.
Regarding `CCCC(c1cc(C(C)(C)C)c(O)cc1C)c1cc(C(C)(C)C)c(O)cc1C`, the TGI in [1] is 8.78 µM; in [2], 5.69 µM; in [3] it was 12.1 µM; in experiment [4], 10.2 µM; in experiment [5], 3.3 µM; in [6] it was 4.54 µM. Besides, the TGI in [7] is 17.5 µM; in experiment [8], 6.85 µM; in [9], 6.43 µM; in experiment [10] it was 4.51 µM.
`Cc1cc(C)c2c(=O)cc(-c3ccc(F)cc3)[nH]c2n1`: the GI50 was 30.1 µM in experiment [1] and 95.1 µM in experiment [8]. In addition, the TGI in [1], in experiment [2], in [3], in experiment [4], in experiment [5] and in experiment [6] was above 100 µM in each case. Moreover, the TGI was above 100 µM in [7], above 100 µM in experiment [8], above 100 µM in experiment [9] and 99.5 µM in experiment [10].
